Experimental data reported in the supplement of paper PMC10331698.
± gives the standard deviation of the averaged measurements.

Key:
Assay in all cases: level (log10 ratio to DMSO vehicle control); higher = higher biomarker level / cell amount than vehicle control
[1] = compound: OCC(F)(F)C(F)(F)C(F)(F)C(F)(F)C(F)(F)C(F)(F)C(F)(F)C(F)(F)CO [1H,1H,10H,10H-Perfluorodecane-1,10-diol]; details: in DMSO
Protocol: (§1)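 BioMAP Diversity Plus panel of 12 human primary cell co-culture systems (3C, 4H, LPS, SAg, BT, BF4T, BE3C, CASM3C, HDF3CGF, KF3CT, MyoF, Mphg). Compounds were added 1 h before stimulation and left for 24 h (MyoF 48 h; BT 72 h for soluble read-outs or 6 d for IgG). Biomarkers were read by ELISA, cytotoxicity by SRB, PBMC viability and proliferation by Alamar Blue. Each well value was divided by the mean of 8 DMSO control wells on the same plate and log10 transformed; duplicate blinded samples were tested at 4 concentrations.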

[2] = compound: O=S(=O)(O)CCC(F)(F)C(F)(F)C(F)(F)C(F)(F)F [4:2 Fluorotelomer sulfonic acid]; details: in DMSO
Protocol: as §1

Perfluorooctanoic acid = compound: O=C(O)C(F)(F)C(F)(F)C(F)(F)C(F)(F)C(F)(F)C(F)(F)C(F)(F)F [Perfluorooctanoic acid]; details: in DMSO
Protocol: as §1

[3] = compound: O=C(O)C(F)(F)C(F)(F)C(F)(F)C(F)(F)C(F)(F)C(F)(F)C(F)(F)F [Ammonium perfluorooctanoate]; details: in DMSO
Protocol: as §1

[4] = compound: FC(F)(I)C(F)(F)C(F)(F)C(F)(F)C(F)(F)C(F)(F)I [1,6-Diiodoperfluorohexane]; details: 6700 nM; in DMSO
Protocol: as §1

Methotrexate = compound: CN(Cc1cnc2nc(N)nc(N)c2n1)c1ccc(C(=O)N[C@@H](CCC(=O)O)C(=O)O)cc1 [Methotrexate]; details: in DMSO
Protocol: as §1

[5] = compound: OCCCC(F)(F)C(F)(F)C(F)(F)C(F)(F)C(F)(F)C(F)(F)C(F)(F)C(F)(F)F [3-(Perfluorooctyl)propanol]; details: 6700 nM; in DMSO
Protocol: as §1

[6] = compound: C=CC(=O)OCC(F)(F)C(F)(F)C(F)(F)C(F)(F)COC(=O)C=C [1H,1H,6H,6H-Perfluorohexane-1,6-diol diacrylate]; details: 6700 nM; in DMSO
Protocol: as §1

Test System	level (log10) ([1]; 6700 nM)	level (log10) ([1]; 20000 nM)	level (log10) ([1]; 60000 nM)	level (log10) ([2]; 6700 nM)	level (log10) ([2]; 20000 nM)	level (log10) ([2]; 60000 nM)	level (log10) (Perfluorooctanoic acid; 6700 nM)	level (log10) (Perfluorooctanoic acid; 20000 nM)	level (log10) (Perfluorooctanoic acid; 60000 nM)	level (log10) ([3]; 6700 nM)	level (log10) ([3]; 20000 nM)	level (log10) ([3]; 60000 nM)	level (log10) [4]	level (log10) (Methotrexate; 1500 nM)	level (log10) (Methotrexate; 4400 nM)	level (log10) (Methotrexate; 13000 nM)	level (log10) (Methotrexate; 40000 nM)	level (log10) [5]	level (log10) [6]
BF4T:CCL2/MCP-1	-0.0755 ± 0.05	-0.273 ± 0.049	-0.329	0.0145 ± 0.037	0.0075 ± 0.00071	0.0395 ± 0.022	0.0265 ± 0.018	0.015 ± 0.013	-0.0835 ± 0.039	-0.0015 ± 0.013	0.0005 ± 0.036	-0.016 ± 0.069	-0.172	0.0115 ± 0.022	0.0135 ± 0.0035	-0.022 ± 0.0028	0.0055 ± 0.029	-0.0265 ± 0.0092	-0.055 ± 0.02
LPS:CXCL8/IL-8	-0.0065 ± 0.023	0.006 ± 0.0042	0.051	-0.0015 ± 0.097	0.027 ± 0.054	0.111 ± 0.018	0.0155 ± 0.021	0.033 ± 0.014	0.146 ± 0.057	0.017 ± 0.0042	0.038 ± 0.013	0.047 ± 0.027	0.002	-0.015 ± 0.0085	-0.001 ± 0.013	0.0045 ± 0.0021	0.0055 ± 0.013	-0.132 ± 0.014	-0.0205 ± 0.028
4H:CD87/uPAR	-0.057 ± 0.0099	-0.083 ± 0.0042	-0.097	0.0185 ± 0.0078	0.003 ± 0.0085	-0.031 ± 0.024	-0.0695 ± 0.053	-0.0395 ± 0.1	-0.083 ± 0.048	0.0015 ± 0.028	0.026 ± 0.0057	0.034 ± 0.023	-0.009	0.0245 ± 0.029	-0.014 ± 0.031	-0.0105 ± 0.033	0.0185 ± 0.03	-0.0615 ± 0.025	-0.04 ± 0.027
BF4T:uPA	-0.014 ± 0.017	-0.029 ± 0.0042	-0.06	-0.013 ± 0.02	-0.013 ± 0.0085	0.0105 ± 0.0078	-0.0245 ± 0.023	-0.0315 ± 0.016	-0.0185 ± 0.013	0.014 ± 0.0028	0.0175 ± 0.0021	0.042 ± 0.013	-0.031	0.013 ± 0.0085	0.0115 ± 0.0078	0.005 ± 0.03	0.009 ± 0.028	0.006 ± 0.0085	-0.02 ± 0.035
3C:Proliferation	-0.047 ± 0.068	-0.0735 ± 0.06	-0.403	0.0045 ± 0.083	0.0155 ± 0.013	0.003 ± 0.0085	-0.0155 ± 0.015	-0.003 ± 0.0099	-0.08 ± 0.02	-0.001 ± 0.034	0.015 ± 0.0042	-0.0635 ± 0.08	-0.102	0.0185 ± 0.056	0.0495 ± 0.013	0.0285 ± 0.019	-0.086 ± 0.04	-0.385 ± 0.027	-0.307 ± 0.084
BF4T:CXCL8/IL-8	0.0005 ± 0.0064	0.0095 ± 0.00071	0.004	-0.001 ± 0.052	0.0065 ± 0.016	0.001 ± 0.033	-0.0035 ± 0.013	-0.0085 ± 0.0035	-0.0025 ± 0.016	0.0135 ± 0.047	0.043 ± 0.058	0.04 ± 0.088	-0.014	0.035 ± 0.027	0.027 ± 0.071	0.041 ± 0.057	0.0365 ± 0.12	0.006 ± 0.023	-0.0265 ± 0.013
LPS:sTNF-alpha	-0.0915 ± 0.069	-0.043 ± 0.0085	-0.023	-0.0105 ± 0.011	-0.007 ± 0.0014	-0.0065 ± 0.0035	0.032 ± 0.0099	0.0305 ± 0.021	0.0085 ± 0.013	0.004 ± 0.0085	0.001 ± 0.0057	-0.0135 ± 0.00071	-0.007	0.0165 ± 0.033	0 ± 0.079	-0.045 ± 0.024	-0.0525 ± 0.069	-0.335 ± 0.2	0.0235 ± 0.029
LPS:CD69	-0.0215 ± 0.073	-0.039 ± 0.045	-0.111	-0.0435 ± 0.052	-0.0565 ± 0.029	-0.058 ± 0.028	0.0445 ± 0.096	0.0475 ± 0.046	-0.025 ± 0.092	-0.0165 ± 0.012	-0.045 ± 0.0085	-0.142 ± 0.031	-0.019	-0.0175 ± 0.015	-0.035 ± 0.033	-0.0385 ± 0.044	-0.0175 ± 0.0092	-0.011 ± 0.016	-0.052 ± 0.023
LPS:M-CSF	-0.018 ± 0.024	-0.013	0.011	-0.0265 ± 0.049	0.017 ± 0.0071	0.0025 ± 0.005	0.0255 ± 0.054	-0.016 ± 0.1	0.06 ± 0.078	0.0145 ± 0.023	0.005 ± 0.031	0.007 ± 0.018	-0.008	0.0235 ± 0.005	0.0035 ± 0.019	0.0235 ± 0.0035	-0.0065 ± 0.03	-0.073 ± 0.03	-0.021 ± 0.021
3C:CD87/uPAR	-0.063 ± 0.064	-0.051 ± 0.075	-0.165	-0.05 ± 0.047	-0.017 ± 0.069	0.002 ± 0.058	-0.0005 ± 0.0021	-0.0035 ± 0.005	-0.0425 ± 0.0021	-0.007 ± 0.0042	-0.0095 ± 0.013	-0.056 ± 0.011	-0.022	0.0005 ± 0.0092	0.001 ± 0.047	0.01 ± 0.071	-0.0095 ± 0.013	-0.03 ± 0.04	0.0105 ± 0.029
4H:SRB	-0.0085 ± 0.011	-0.026 ± 0.014	-0.153	-0.0035 ± 0.00071	-0.0055 ± 0.005	-0.0035 ± 0.0092	-0.013 ± 0.0071	-0.004 ± 0.023	-0.038 ± 0.031	-0.004 ± 0.011	-0.0115 ± 0.005	-0.0245 ± 0.0078	0.009	0.0105 ± 0.0078	-0.0075 ± 0.011	0.0035 ± 0.00071	0.007 ± 0.0014	-0.0015 ± 0.00071	-0.0075 ± 0.0035
BF4T:MMP-9	-0.0185 ± 0.015	-0.063 ± 0.0028	-0.135	-0.023 ± 0.023	-0.02 ± 0.0028	0.0205 ± 0.033	-0.006 ± 0.0057	0.02 ± 0.013	0.0215 ± 0.013	0.017 ± 0.023	0.028 ± 0.0057	0.0375 ± 0.025	-0.059	0.0265 ± 0.012	-0.0075 ± 0.029	0.014 ± 0.0099	0.016	0.0155 ± 0.057	0.0005 ± 0.00071
4H:VEGFR2	-0.0455 ± 0.07	-0.0125 ± 0.0092	0.055	-0.103 ± 0.042	-0.0525 ± 0.071	0.025 ± 0.075	0.019 ± 0.0099	0.0055 ± 0.042	0.0205 ± 0.033	-0.0055 ± 0.0035	-0.009 ± 0.0014	-0.0455 ± 0.098	-0.002	-0.0035 ± 0.04	-0.028 ± 0.035	-0.014 ± 0.017	0.022 ± 0.0057	-0.013 ± 0.0085	-0.0605 ± 0.00071
BT:sIL-6	-0.0075 ± 0.011	-0.0405 ± 0.032	-0.673	0.047 ± 0.041	-0.0105 ± 0.011	-0.052 ± 0.13	0.024 ± 0.03	-0.0095 ± 0.035	0.0025 ± 0.0078	-0.0485 ± 0.0021	-0.0025 ± 0.037	-0.034 ± 0.085	-0.018	0.0125 ± 0.013	-0.034 ± 0.1	-0.0095 ± 0.059	-0.2 ± 0.033	0.0875 ± 0.052	-0.546 ± 0.044
SAg:CD38	-0.0275 ± 0.00071	-0.04 ± 0.0099	-0.027	-0.0135 ± 0.028	-0.0415 ± 0.019	-0.0245 ± 0.005	-0.008 ± 0.0085	-0.012 ± 0.023	-0.0405 ± 0.0064	-0.011 ± 0.018	-0.0055 ± 0.0064	-0.051 ± 0.017	-0.008	0.037 ± 0.0099	-0.0175 ± 0.005	0.031 ± 0.0085	0.006 ± 0.028	-0.017 ± 0.016	-0.0305 ± 0.0078
